Measurements published in PMC11143095, “Chemically engineered essential oils prepared through thiocyanation under solvent-free conditions: chemical and bioactivity alteration” (Natural Products and Bioprospecting, 2024).

Molecular target: T1, AChE from Electrophorus electricus (Electrophorus electricus, UniProt O42275)
T1 construct: purchased Sigma-Aldrich (St. Louis, MO, USA)
Assay: biochemical
Conditions: for IC50: Ellman's reagent, microplate, 37 °C, pH 7.5, read-out: half maximal inhibitory concentration (IC50) against AChE
Method: Microplate assays utilizing Ellman’s reagent were performed to quantitatively assess the inhibitory activity of the isolated compounds against AChE [67].
Ammonium thiocyanate, sodium thiosulfate pentahydrate, anhydrous sodium sulfate and iodine were purchased from Cicarelli Laboratorios (San Lorenzo, Santa Fe). AChE from Electrophorus electricus EC 3.1.1.7, Fast blue salt B (FBB), α-naphthol, α-naphthyl acetate (α-NAc), and CDCl3, were purchased from Sigma-Aldrich (St. Louis, MO, USA). Acetonitrile (LCMS grade) was acquired from Carlo Erba Reagents (Val de Reuil, France) and formic acid from Merck. Aluminium TLC sheets coated with Silica gel 60 F were purchased from Merck (Darmstadt, Germany). Agar was purchased from Britania (Bs. As., Argentina).
Inhibition percentage determinations were carried out using the method applied by Osella et al.. Wells were filled in triplicate with AChE solution (in 0.1 M phosphate buffer, pH 7.5, and 13.7 µU/mL end concentration per well), Ellman’s reagent (DTNB, 5,5dithio-bis-(2-nitrobenzoic acid)), the same buffer solution (0.31 mM end concentration per well) and 10 µL of test compound in DMSO solution (0.05 µM end concentration per well). […] The enzymatic reaction was initiated by addition of acetylthiocholine iodide (0.46 mM end concentration per well). The final volume per well was 270 µL. The plate was shaken for 2 s and the increase in absorbance at 405 nm was monitored at 37 °C for 15 min. For IC50 determination, ten serial dilutions of the compounds were prepared in DMSO, following equally spaced points on a neperian logarithm scale, starting at 2.16 mM and finishing at 0.00023 mM (end concentration per well: 80.00 to 0.00839 µM). IC50 calculated using Prism V5.01 (GraphPad Software Inc., La Jolla, CA, USA) applying a non linear regression curve fit for a log[inhibitor] vs. normalized answer model with variable slope.

T1 sequence (O42275 24-633): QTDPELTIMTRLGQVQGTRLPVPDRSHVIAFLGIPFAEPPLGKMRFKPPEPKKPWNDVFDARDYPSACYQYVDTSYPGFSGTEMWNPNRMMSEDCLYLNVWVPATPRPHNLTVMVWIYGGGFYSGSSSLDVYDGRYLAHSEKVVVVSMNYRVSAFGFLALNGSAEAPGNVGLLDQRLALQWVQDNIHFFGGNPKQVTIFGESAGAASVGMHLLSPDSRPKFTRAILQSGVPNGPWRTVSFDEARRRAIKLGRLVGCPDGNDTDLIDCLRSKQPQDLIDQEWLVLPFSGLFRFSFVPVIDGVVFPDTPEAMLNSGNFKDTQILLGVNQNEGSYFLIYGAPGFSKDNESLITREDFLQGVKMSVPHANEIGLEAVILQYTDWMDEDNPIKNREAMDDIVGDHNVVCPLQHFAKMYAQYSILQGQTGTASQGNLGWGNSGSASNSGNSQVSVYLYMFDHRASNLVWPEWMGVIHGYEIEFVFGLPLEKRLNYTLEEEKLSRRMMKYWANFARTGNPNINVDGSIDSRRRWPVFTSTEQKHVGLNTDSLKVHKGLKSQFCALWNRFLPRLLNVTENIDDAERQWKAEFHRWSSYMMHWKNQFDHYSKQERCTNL

| Structure (SMILES) | IC50 [nM] | activity against AChE (in words) |
| --- | --- | --- |
| Cc1cc(Sc2nsc(-c3cc(C)c(O)cc3C(C)C)n2)c(C(C)C)cc1O [compound 3, 4-((5-(4-hydroxy-2-isopropyl-5-methylphenyl)-1,2,4-thiadiazol-3-yl)thio)-5-isopropyl-2-methylphenol] | 56 ± 25 | – |
| Cc1cc(Sc2nsc(Sc3cc(C)c(O)cc3C(C)C)n2)c(C(C)C)cc1O [compound 4] | 34 ± 16 | – |
| Cc1cc(Sc2cc(C)c(O)cc2C(C)C)c(C(C)C)cc1O [compound 2, 4,4′-thiobis(5-isopropyl-2-methylphenol)] | 158 ± 59 | – |
| Cc1ccc(C(C)C)cc1O [carvacrol, reference compound] | – | inactive |
| Cc1cc(SC#N)c(C(C)C)cc1O [compound 1, 5-isopropyl-2-methyl-4-thiocyanatophenol] | 4086 ± 35 | – |
